Marks after values point to notes of the source that are not given here.
Experiments:
cervical carcinoma cells = conditions: read-out: CE50 dose; cited from earlier work
[1] = test system: CCRF-CEM (CCL-119) (T-lymphoblastic leukemia); assay: MTT cytotoxicity on CCRF-CEM cells; assay type: cell-based; conditions: Homo sapiens, 24 hours
Protocol: (§1) The cytotoxic properties of the compounds were determined in vitro using the MTT method in 96-well plates (Costar, USA). […] Rat liver hepatocytes were obtained according to the method, human blood mononuclear cells - according to [23]. Fibroblast cells were obtained according to the method of [24] with some modifications. Cell cultures were subcultured into 96-well plates according to the method of [21] by adding 100 μl of nutrient medium. The CCRF-CEM suspension culture was poured into a tube, centrifuged at 800 rpm for 10 minutes, and the supernatant was discarded. […] Data obtained in 3 independent experiments were expressed as the mean value for each concentration ± standard error of the mean, relative to the control values (cells without test compounds). The cytotoxic effect of each of the studied compounds was compared with the effect of the cytostatic Cisplatin-Naprod (India), containing cisplatin as an active component. Table 1: IC50 μM value for test compounds

fibroblasts = assay: MTT cytotoxicity on fibroblasts; assay type: cell-based; conditions: Fibroblast, 24 hours
Protocol: as §1

[2] = test system: blood of patients with T-ALL; assay: Hemogram of blood of patients with T-ALL after exposure; assay type: cell-based
Excerpt: (§3) The effect of compounds F1 and F2 was studied on biological material (blood) of patients with hematological malignancies (leukemia), as well as for individual nosologies, in particular, patients with leukemia (combined group) (n=224), T-ALL (n=84), B-ALL (n=100), ALL (n=100), AML (n= 98), AML (n=94) and AML (n= 98) were studied. A total of 798 blood samples from patients with leukemia were examined.
(§4) The drugs Cytosar (Alexan) (Ebewe Pharma, Austria) and doxorubicin (Naprod, Mumbai, India) recommended by WHO for the treatment of the above oncohematological diseases were used as comparison drugs.
(§5) 5 ml of venous blood from sick and conditionally healthy individuals were collected into Vacutainer tubes with the addition of EDTA (Himedia, India).
(§6) The resulting blood was divided into aliquots of 1 ml and 10 µl (10 µg/ml) of the studied drugs (cytosar, doxorubicin, F1 and F2) were added to each tube.

outbred white mice = assay: Acute toxicity study (LD50)
Protocol: (§2) We studied the acute toxicity of compound F1 in vivo. The experiments were carried out on outbred white mice of both sexes weighing 18-20 g (24 pcs.). The animals were divided into groups of 12 mice each. The compound was dissolved in DMSO and then adjusted to the desired concentration with 0.9% NaCl solution and administered intraperitoneally and subcutaneously in a dose range from 5.0 to 200.0 mg/kg. […] The maximum relative error of the applied dose was no more than 5%.
as §2, with “F2” for “F1”, “brought” for “adjusted”, “subcutaneously to animals” for “subcutaneously”, “administered” for “applied”

[3] = Acute toxicity study (LD50); conditions: mouse, in vivo, ip
Protocol: as §2
as §2, with “F2” for “F1”, “brought” for “adjusted”, “subcutaneously to animals” for “subcutaneously”, “administered” for “applied”

[4] = test system: blood of patients with AML; assay: Hemogram of blood of patients with AML after exposure (Example 13, Table 10; also OMML); assay type: cell-based
Protocol: as §4, §5, §6

[5] = test system: blood of patients with AML; assay: Hemogram of blood of patients with AML after exposure (Example 14, Table 11); assay type: cell-based; conditions: AML (Table 11); 10 µg/ml; 3 hours, 37.0°C
Excerpt: as §3, §4, §5, §6

[6] = test system: blood of patients with leukemia (combined group); assay: Hemogram of blood of patients with leukemia (combined group) after exposure; assay type: cell-based
Excerpt: as §3, §4, §5, §6

[7] = test system: blood of patients with B-ALL; assay: Hemogram of blood of patients with B-ALL after exposure; assay type: cell-based
Protocol: A total of 798 blood samples from patients with leukemia were examined.
as §4, §5, §6

Rat liver hepatocytes = assay: MTT cytotoxicity on hepatocytes; assay type: cell-based; conditions: Rattus norvegicus, Hepatocyte, 24 hours
Protocol: as §1

[8] = test system: blood of patients with AML; assay: Hemogram of blood of patients with AML after exposure (Example 12, Table 9); assay type: cell-based
Protocol: as §4, §5, §6

[9] = test system: blood of patients with ALL; assay: Hemogram of blood of patients with ALL after exposure; assay type: cell-based
Protocol: as §3, §5, §6

lung cancer H460 = conditions: cited from earlier work
[10] = AML (Example 13), compared with doxorubicin
[11] = AML (Table 10), 10 µg/ml, 3 hours, 37.0°C
[12] = AML (Table 9), 10 µg/ml, 3 hours, 37.0°C

CS(=O)(=O)N1CCC(Nc2n[nH]c3c2nc(-c2c(F)cccc2F)c2cc(C(N)=O)ccc23)CC1 [5-(2,6-difluorophenyl)-3-{[1-(methylsulfonyl)piperidin-4-yl]amino}-1H-pyrazolo[4,3-c]isoquinoline-7-carboxamide]
EC50 (cervical carcinoma cells): 259 nM

COc1cc2c(cc1OC)C(c1cc3c(cc1Cl)OCO3)NCC2 (stereo not shown) [Compound F2, 1-(2'-chloro-4',5'-methylenedioxyphenyl)-6,7-dimethoxy-1,2,3,4-tetrahydroisoquinoline]
IC50 [1]: 21 µM
IC50 (fibroblasts): > 100 µM
Band (s/n) neutrophils ([2]; 10 µg/ml, 3 hours, 37.0°C): 0,8±0,2%
Blasts ([2]; 10 µg/ml, 3 hours, 37.0°C): 68,2±2,2 %
Destroyed cells ([2]; 10 µg/ml, 3 hours, 37.0°C): 16,1±1,3 A %
Eosinophils ([2]; 10 µg/ml, 3 hours, 37.0°C): 0,0±0,0%
Lymphocytes ([2]; 10 µg/ml, 3 hours, 37.0°C): 6,7±0,6*^ # %
Monocytes ([2]; 10 µg/ml, 3 hours, 37.0°C): 1,2±0,2*^ %
Myelocytes ([2]; 10 µg/ml, 3 hours, 37.0°C): 0,0±0,0%
Promyelocytes ([2]; 10 µg/ml, 3 hours, 37.0°C): 0,0±0,000%
Segmented (s/i) neutrophils ([2]; 10 µg/ml, 3 hours, 37.0°C): 7,0±1,0*^ %
increase in the percentage of destroyed cells ([2]; comparator not stated): 1.8 times
decrease in lymphocytes ([2]; compared with doxorubicin): 1.7 times
decrease in monocytes ([2]; compared with doxorubicin): 1.9 times
increase in the proportion of mature and differentiated neutrophils ([2]; comparison with the cytosar group): 2.3 times
toxicity class (outbred white mice; classified from LD50): toxicity class 3 (moderately toxic)
LD50 value, times higher than cytosar (cytarabine) (outbred white mice; relative to cytosar): 52 times
LD50 value, times higher than doxorubicin (outbred white mice; relative to doxorubicin): 20 times
LD50 at 168 h [3]: 220 ± 15.6 mg/kg
decrease in the percentage of myelocytes ([4]; AML (Example 13)): 2.1 times
decrease in the proportion of blasts ([4]; AML (Example 13)): 11.7%
increase in the proportion of destroyed cells ([4]; AML (Example 13)): 2.6 times
increase in the proportion of neutrophils ([4]; AML (Example 13)): 2.3 times
proportion of destroyed cells higher ([4]; AML (Example 13), compared with Cytosar): 2.1 times
percentage of lymphocytes lower [4, 10]: 1.9 times
percentage of neutrophils lower [4, 10]: 1.7 times
percentage of myelocytes lower ([4]; AML (Example 13), relative to cytosar): 5.0 times
Band (s/n) neutrophils [4, 11]: 2,9±0,4%
Blasts [4, 11]: 51,9±2,2%
Destroyed cells [4, 11]: 16,6±1,6*^ %
Eosinophils [4, 11]: 0,5±0,2%
Lymphocytes [4, 11]: 3,2±0,8 %
Monocytes [4, 11]: 3,2±0,4 %
Myelocytes [4, 11]: 3,2±0,5 %
Promyelocytes [4, 11]: 0,0±0,0%
Segmented (s/i) neutrophils [4, 11]: 18,6±1,7 %
Band (s/n) neutrophils [5]: 1,2±0,3%
Blasts [5]: 59,1±3,3 %
Destroyed cells [5]: 19,3±1,7 %
Eosinophils [5]: 0,5±0,2%
Lymphocytes [5]: 8,2±1,1%
Monocytes [5]: 1,8±0,3%
Myelocytes [5]: 0,4±0,1%
Promyelocytes [5]: 0,0±0,0%
Segmented (s/i) neutrophils [5]: 9,6±2,5%
Band (s/n) neutrophils ([6]; 10 µg/ml, 3 hours, 37.0°C): 1,6±0,2 %
Blasts ([6]; 10 µg/ml, 3 hours, 37.0°C): 65,2±2,8 %
Destroyed cells ([6]; 10 µg/ml, 3 hours, 37.0°C): 12,9±1,8 %
Eosinophils ([6]; 10 µg/ml, 3 hours, 37.0°C): 1,6±0,3 %
Lymphocytes ([6]; 10 µg/ml, 3 hours, 37.0°C): 12,3±1,2%
Monocytes ([6]; 10 µg/ml, 3 hours, 37.0°C): 4,7±0,7 %
Myelocytes ([6]; 10 µg/ml, 3 hours, 37.0°C): 2,5±0,6 %
Promyelocytes ([6]; 10 µg/ml, 3 hours, 37.0°C): 3,8±2,1%
Segmented (s/i) neutrophils ([6]; 10 µg/ml, 3 hours, 37.0°C): 5,5±0,9%
increase in the level of destroyed cells ([6]; compared to the control group): 2.3 fold
decrease in the content of blasts ([6]; versus Control group): 14.6%
decrease in the content of blasts [7]: 1.27 times
increase in the proportion of destroyed cells [7]: 4.9 times
Band (s/n) neutrophils ([7]; 10 µg/ml, 3 hours, 37.0°C): 1,7±0,4%
Blasts ([7]; 10 µg/ml, 3 hours, 37.0°C): 53,9±2,6 %
Destroyed cells ([7]; 10 µg/ml, 3 hours, 37.0°C): 15,2±1,8*^ %
Eosinophils ([7]; 10 µg/ml, 3 hours, 37.0°C): 0,0±0,0%
Lymphocytes ([7]; 10 µg/ml, 3 hours, 37.0°C): 14,6±2,0%
Monocytes ([7]; 10 µg/ml, 3 hours, 37.0°C): 2,8±0,9%
Myelocytes ([7]; 10 µg/ml, 3 hours, 37.0°C): 0,8±0,2%
Promyelocytes ([7]; 10 µg/ml, 3 hours, 37.0°C): 0,0±0,0%
Segmented (s/i) neutrophils ([7]; 10 µg/ml, 3 hours, 37.0°C): 11,1±2,0 %
IC50 (Rat liver hepatocytes): > 100 µM
decrease in the percentage of blasts ([8]; AML (Example 12)): 1.2 times
increase in the level of destroyed cells ([8]; AML (Example 12)): 4.0 times
increase in the proportion of mature differentiated neutrophils ([8]; AML (Example 12)): 2.0 times
Band (s/n) neutrophils [8, 12]: 0,9±0,4%
Blasts [8, 12]: 65,6±2,4 %
Destroyed cells [8, 12]: 8,2±1,1%
Eosinophils [8, 12]: 0,8±0,5%
Lymphocytes [8, 12]: 11,5±1,8%
Monocytes [8, 12]: 4,4±0,9%
Myelocytes [8, 12]: 1,3±0,7%
Promyelocytes [8, 12]: 0,4±0,2%
Segmented (s/i) neutrophils [8, 12]: 7,0±1,1 %
Band (s/n) neutrophils ([9]; 10 µg/ml, 3 hours, 37.0°C): 0,7±0,2%
Blasts ([9]; 10 µg/ml, 3 hours, 37.0°C): 67,9±1,6*^ %
Destroyed cells ([9]; 10 µg/ml, 3 hours, 37.0°C): 13,2±1,4*^ # %
Eosinophils ([9]; 10 µg/ml, 3 hours, 37.0°C): 0,2±0,1%
Lymphocytes ([9]; 10 µg/ml, 3 hours, 37.0°C): 13,4±1,3%
Monocytes ([9]; 10 µg/ml, 3 hours, 37.0°C): 1,1±0,3%
Myelocytes ([9]; 10 µg/ml, 3 hours, 37.0°C): 0,0±0,0%
Promyelocytes ([9]; 10 µg/ml, 3 hours, 37.0°C): 0,0±0,0%
Segmented (s/i) neutrophils ([9]; 10 µg/ml, 3 hours, 37.0°C): 3,7±0,7 %
percentage of destroyed cells higher ([9]; compared to cytosar): 2.8 times
difference in the level of blast cells ([9]; compared with cytosar): 1.16 times
increase in the proportion of destroyed cells ([9]; in comparison with doxorubicin): 2.75 times

C/C=C(/C)C(=O)OC[C@H]1C2=C(C[C@H]3[C@H]4C5=C(C[C@@H]([C@H](C#N)N13)N4C)C(=O)C(C)=C(OC)C5=O)C(=O)C(C)=C(OC)C2=O [renieramycin M]
IC50 (lung cancer H460): 40 µM
